Source: patent US9682965B2, “Fumagillol heterocyclic compounds and methods of making and using same” (Zafgen, Inc., priority 2015, dated 2017)
Structures can show the parent of a compound that is named as a salt. Where two headings read alike, the source gives them in different places.

Columns and labels:
recombinant human MetAP2 = recombinant human MetAP2 (Homo sapiens (Human), UniProt P50579); assay: recombinant human MetAP2 enzyme inhibition assay; type: biochemical
Method: Compounds are tested for their capacity to inhibit recombinant human MetAP2 activity using the following assay.
Flag tagged Human recombinant MetAP2 expressed and isolated for use as the enzyme source. 10 mM stock solutions of compounds were prepared in 100% DMSO and further diluted in 100% DMSO required concentration to 1 mM stocks. The stock compound solutions and DMSO vehicle controls were diluted to target final compound concentrations using assay buffer to a final concentration of 50 mM HEPES containing 100 mM NaCl, pH adjusted to 7.5. The MAS peptide was formulated to a 7.5 mM stock in distilled water and prior to use further diluted 1:4. […] 40 μl of enzyme was mixed with 100 μl of MnCl2 then further diluted in assay buffer to a final concentration of 16 μg/ml. To test for compound effect on MetAP2 enzyme activity, 5 μl of test compound, 10 μl of MAS substrate/amino acid oxidase mixture, 10 μl of MetAP2 was added to test wells in a 384 well black plate with blank wells containing no enzyme, replaced with 10 μl of assay buffer. All compounds were tested in duplicate on two occasions on the same day.
The plate was sealed with a TopSeal A cover and mixed briefly on an orbital mixer at 900 rpm. The plate was incubated for a further 25 minutes at 25° C. A 5× stock of Amplex buffer was prepared (0.25M sodium phosphate, pH 7.4) and stored at 4° C. […] 25 μl detection reagent was added to each well of the test plate, which was re-sealed and mixed briefly on an orbital shaker.

[1] = test system: Diet Induced Obese (DIO) C57BL/6 mice; assay: 10 day DIO mouse model (body weight, food intake, hematology, blood chemistry); type: in vivo; details: 240 h, read-out: DIO Mouse 10-day weight loss vs vehicle; for inhibition in vivo at 1 mg/kg: 1.0 mpk sc
How it was run: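 DIO C57BL/6 mice on 60% kcal fat diet received compounds subcutaneously once daily for 10 days at 1.0, 0.5, 0.3, 0.1 or 0.03 mpk, in 10% DMSO in water, after 3-day vehicle acclimation. Body weight and food intake were recorded daily. Hematology and blood chemistry were taken on Day 11, 24 h post-final dose.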

[2] = test system: Male Sprague Dawley rats on high fat diet; assay: 11 day rat DIO model (body weight, food intake, hematology, blood chemistries); type: in vivo; details: 264 h, DIO rat, once a day for 11 days, read-out: DIO Rat 11-day weight loss vs vehicle; for inhibition in vivo at 0.3 mg/kg: 0.3 mpk sc; for inhibition in vivo at 1 mg/kg: 1.0 mpk sc
How it was run: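 Male Sprague Dawley rats on 45% high-fat diet, acclimated 3 days to vehicle injections, then given compound (0.03-1.0 mg/kg) or vehicle (10% DMSO in water) sc once daily for 11 days. Body weight and food intake recorded daily. Blood taken about 2 h after the final dose for hematology and chemistry.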

[3] = test system: pregnant Sprague Dawley rats (embryo/fetal development)
Excerpt: Study Summary Rat Embryofetal:
The objective of this study design was to evaluate the potential effects of disclosed compounds on embryo/fetal development when given subcutaneously to pregnant rats once every three days during the critical period of organogenesis (Gestation Days 6-18). Female, Sprague Dawley rats, approximately 10 weeks of age, time bred, were ordered from a certified vendor and housed individually housed in stainless steel cages suspended over flush pans, on a 12-hour light-dark cycle (0700-1900) at 20-26° C. and 30-70% humidity. Rats were fed a standard rodent chow and provided water ad libitum. Rats were received and housed in the facility for a period of approximately 1 to 2 days.
Compounds were formulated using 100% DMSO mixed in Sterile Water for Injection, resulting in 2% DMSO solution in water. If necessary, due to limited solubility of a test article, a higher percentage of DMSO solution in water was used. Groups of 8 mated and presumed pregnant female rats were given subcutaneous doses of vehicle or test article, once every three days, beginning on Gestation Day 6 and ending on Gestation Day 18 (Days 6, 9, 12, 15, and 18), maintained two more days, and then euthanized and necropsied on Gestation Day 20. Body weights was recorded for all animals on Gestation Days 5 (purpose of randomization), 6, 9, 12, 15, 18, and 20 (scheduled euthanasia). Food consumption by weight was recorded on Gestation Days 6, 9, 12, 15, 18, and 20 (scheduled termination).
At necropsy, the dams were examined visually for external abnormalities including palpable masses. The abdominal, thoracic, and cranial cavities and their contents were examined for abnormalities and findings will be recorded. The reproductive tract were examined to record the number of ovarian corpora lutea, the number and location of uterine implantation sites noting the position of the cervix, and the number of early resorptions, late resorptions, live fetuses, and dead fetuses. For dead fetuses and late resorptions, crown-to-rump length and weight were recorded, if possible, and the fetus was discarded. For viable fetuses, weight, sex, and grossly visible external abnormalities were recorded.

[4] = recombinant human MetAP2, MAS peptide substrate, 25 minutes at 25° C
[5] = DIO mouse, 0.3 mpk sc, once a day for 10 days
[6] = 6 mpk, subcutaneous, once every three days, Gestation Days 6-18, pregnant rats
[7] = DIO mouse, once a day for 10 days

Chain of recombinant human MetAP2 (P50579 whole entry): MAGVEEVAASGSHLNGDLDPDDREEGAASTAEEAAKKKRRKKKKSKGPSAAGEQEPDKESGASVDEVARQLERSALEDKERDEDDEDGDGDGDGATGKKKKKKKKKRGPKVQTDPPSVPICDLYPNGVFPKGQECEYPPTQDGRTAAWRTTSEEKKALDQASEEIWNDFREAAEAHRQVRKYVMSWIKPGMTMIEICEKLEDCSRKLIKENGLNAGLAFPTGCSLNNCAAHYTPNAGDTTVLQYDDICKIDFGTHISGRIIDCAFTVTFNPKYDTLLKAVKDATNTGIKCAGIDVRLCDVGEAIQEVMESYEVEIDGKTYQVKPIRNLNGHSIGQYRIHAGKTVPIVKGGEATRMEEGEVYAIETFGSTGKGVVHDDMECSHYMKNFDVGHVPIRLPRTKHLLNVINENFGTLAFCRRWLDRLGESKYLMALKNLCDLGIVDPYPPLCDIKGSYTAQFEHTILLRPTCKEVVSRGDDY

SMILES	IC50 (recombinant human MetAP2; [4]) [nM]	inhibition in vivo at 0.3 mg/kg [1, 5] [%]	inhibition in vivo at 0.3 mg/kg [2] [%]	inhibition in vivo at 1 mg/kg [1, 7] [%]	other results
CCN(CC)CC[C@H]1CCN(C(=O)O[C@@H]2CC[C@]3(CO3)[C@@H]([C@@]3(C)O[C@@H]3CC=C(C)C)[C@@H]2OC)C1 [Example 53, (S)-((3R,4S,5S,6R)-5-methoxy-4-((2R,3R)-2-methyl-3-(3-methylbut-2-enyl)oxiran-2-yl)-1-oxaspiro[2.5]octan-6-yl) 3-(2-(diethylamino)ethyl)pyrrolidine-1-carboxylate]	< 50	10.9	3	–	–
CO[C@@H]1[C@H](OC(=O)N2CC(Cc3ccc(C)nc3)C2)CC[C@]2(CO2)[C@H]1[C@@]1(C)O[C@@H]1CC=C(C)C [Example 101, (3R,4S,5S,6R)-5-methoxy-4-((2R,3R)-2-methyl-3-(3-methylbut-2-enyl)oxiran-2-yl)-1-oxaspiro[2.5]octan-6-yl 3-((6-methylpyridin-3-yl)methyl)azetidine-1-carboxylate]	–	15.6	3.9	–	Rat Embryofetal @6 mpk [3, 6]: Positive
CO[C@@H]1[C@H](OC(=O)N2CC(CCN3CC(F)(F)C3)C2)CC[C@]2(CO2)[C@H]1[C@@]1(C)O[C@@H]1CC=C(C)C [Example 2, (3R,4S,5S,6R)-5-methoxy-4-((2R,3R)-2-methyl-3-(3-methylbut-2-enyl)oxiran-2-yl)-1-oxaspiro[2.5]octan-6-yl 3-(2-(3,3-difluoroazetidin-1-yl)ethyl)azetidine-1-carboxylate]	–	19.7	5.7	24.2	inhibition in vivo at 0.1 mg/kg ([1]; DIO mouse, 0.1 mpk sc, once a day for 10 days): 14.2%; Rat Embryofetal @6 mpk [3, 6]: Negative; inhibition in vivo at 1 mg/kg [2]: 6.4%
CO[C@@H]1[C@H](OC(=O)N2CC(OC(=O)N3CCN(CC(F)(F)F)CC3)C2)CC[C@]2(CO2)[C@H]1[C@@]1(C)O[C@@H]1CC=C(C)C [Example 81, 1-(((3R,4S,5S,6R)-5-methoxy-4-((2R,3R)-2-methyl-3-(3-methylbut-2-enyl)oxiran-2-yl)-1-oxaspiro[2.5]octan-6-yloxy)carbonyl)azetidin-3-yl 4-(2,2,2-trifluoroethyl)piperazine-1-carboxylate]	–	16.9	–	–	Rat Embryofetal @6 mpk [3, 6]: Positive
CCNC[C@H]1CCN1C(=O)O[C@@H]1CC[C@]2(CO2)[C@@H]([C@@]2(C)O[C@@H]2CC=C(C)C)[C@@H]1OC [Example 123, (R)-((3R,4S,5S,6R)-5-methoxy-4-((2R,3R)-2-methyl-3-(3-methylbut-2-enyl)oxiran-2-yl)-1-oxaspiro[2.5]octan-6-yl) 2-((ethylamino)methyl)azetidine-1-carboxylate formate]	< 50	–	1	9.7	inhibition in vivo at 1 mg/kg [2]: 5.4%
CCNCCC1CN(C(=O)O[C@@H]2CC[C@]3(CO3)[C@@H]([C@@]3(C)O[C@@H]3CC=C(C)C)[C@@H]2OC)C1 [Example 121, (3R,4S,5S,6R)-5-methoxy-4-((2R,3R)-2-methyl-3-(3-methylbut-2-en-1-yl)oxiran-2-yl)-1-oxaspiro[2.5]octan-6-yl3-(2-(ethylamino)ethyl)azetidine-1-carboxylate]	< 50	7.5	5	12.6	–
CO[C@@H]1[C@H](OC(=O)N2CC(CCN3CC4C(C3)C4(F)F)C2)CC[C@]2(CO2)[C@H]1[C@@]1(C)O[C@@H]1CC=C(C)C (stereo partly drawn) [Example 22, (3R,4S,5S,6R)-5-methoxy-4-((2R,3R)-2-methyl-3-(3-methylbut-2-enyl)oxiran-2-yl)-1-oxaspiro[2.5]octan-6-yl 3-(2-(6,6-difluoro-3-azabicyclo[3.1.0]hexan-3-yl)ethyl)azetidine-1-carboxylate formate]	–	–	–	–	inhibition in vivo at 0.3 mg/kg ([1]; Mus musculus, sc): 14%; Rat Embryofetal @6 mpk ([3]; rat, in vivo): Negative
CCNCCCC1CN(C(=O)O[C@@H]2CC[C@]3(CO3)[C@@H]([C@@]3(C)O[C@@H]3CC=C(C)C)[C@@H]2OC)C1 [Example 124, (3R,4S,5S,6R)-5-methoxy-4-((2R,3R)-2-methyl-3-(3-methylbut-2-enyl)oxiran-2-yl)-1-oxaspiro[2.5]octan-6-yl 3-(3-(ethylamino)propyl)azetidine-1-carboxylate formate]	–	4.9	–	–	IC50 (recombinant human MetAP2): < 50 nM
CO[C@@H]1[C@H](OC(=O)N2CC(CCN3CCC(C)(O)CC3)C2)CC[C@]2(CO2)[C@H]1[C@@]1(C)O[C@@H]1CC=C(C)C [Example 8, (3R,4S,5S,6R)-5-methoxy-4-((2R,3R)-2-methyl-3-(3-methylbut-2-enyl)oxiran-2-yl)-1-oxaspiro[2.5]octan-6-yl 3-(2-(4-hydroxy-4-methylpiperidin-1-yl)ethyl)azetidine-1-carboxylate]	< 50	4.9	–	17.3	–
CO[C@@H]1[C@H](OC(=O)N2CC(CCN3CCC(O)CC3)C2)CC[C@]2(CO2)[C@H]1[C@@]1(C)O[C@@H]1CC=C(C)C [Example 7, (3R,4S,5S,6R)-5-methoxy-4-((2R,3R)-2-methyl-3-(3-methylbut-2-en-1-yl)oxiran-2-yl)-1-oxaspiro[2.5]octan-6-yl 3-(2-(4-hydroxypiperidin-1-yl)ethyl)azetidine-1-carboxylate]	< 50	–	–	–	inhibition in vivo at 0.3 mg/kg ([1]; Mus musculus, sc, DIO mouse, 0.3 mpk sc, once a day for 10 days): 1.8%
CCNC[C@@H]1CCN1C(=O)O[C@@H]1CC[C@]2(CO2)[C@@H]([C@@]2(C)O[C@@H]2CC=C(C)C)[C@@H]1OC [Example 122, (S)-((3R,4S,5S,6R)-5-methoxy-4-((2R,3R)-2-methyl-3-(3-methylbut-2-enyl)oxiran-2-yl)-1-oxaspiro[2.5]octan-6-yl) 2-((ethylamino)methyl)azetidine-1-carboxylate]	< 50	3.2	–	–	–
CO[C@@H]1[C@H](OC(=O)N2CC(CCN3CCC3)C2)CC[C@]2(CO2)[C@H]1[C@@]1(C)O[C@@H]1CC=C(C)C [Example 5, (3R,4S,5S,6R)-5-methoxy-4-((2R,3R)-2-methyl-3-(3-methylbut-2-en-1-yl)oxiran-2-yl)-1-oxaspiro[2.5]octan-6-yl 3-(2-(azetidin-1-yl)ethyl)azetidine-1-carboxylate]	< 50	4.3	–	–	–
CCN(CC)CC[C@H]1CCN(C(=O)O[C@@H]2CC[C@]3(CO3)[C@@H]([C@@]3(C)O[C@@H]3CC=C(C)C)[C@@H]2OC)C1 [Example 52, (S)-((3R,4S,5S,6R)-5-methoxy-4-((2R,3R)-2-methyl-3-(3-methylbut-2-enyl)oxiran-2-yl)-1-oxaspiro[2.5]octan-6-yl) 3-(2-(diethylamino)ethyl)pyrrolidine-1-carboxylate]	< 50	8.3	4	–	–
